Experimental data published in patent US9180082B2, “Biotin-conjugated hexapeptide-2 derivative and use thereof” (INCOSPHARM CORPORATION, priority 2012, dated 2015).
Where a SMILES comes first, the peptide text is derived from it. [ ]: non-standard residue; d: D form. The star is where a group is joined. ξ: configuration not given here. Biotin = O=C1N[C@H]2[C@H](CS[C@H]2CCCCC(=O)*)N1; ξW = NC(Cc1c[nH]c2ccccc12)C(=O)O; ξH = NC(Cc1c[nH]cn1)C(=O)O; ξF = NC(Cc1ccccc1)C(=O)O; ξK = NCCCCC(N)C(=O)O; ξA = CC(N)C(=O)O

Columns and labels:
[1] = test system: type 1 collagen biosynthesis in fibroblasts; assay: Type 1 collagen biosynthesis-promoting ability, ELISA of fibroblast culture supernatants; format: cell-based; settings: supernatants of human dermal fibroblasts; dilutions of 200 uM, 20 uM and 2 uM, each 100 ul added to 100 ul medium; incubation 48 hours; FIG. 2
Method: The type 1 collagen produced was measured by ELISA assay to examine the effect of promoting collagen biosynthesis, and a control group with no sample added was considered as 100% to calculate the relative type 1 collagen production ability.
Thereafter, fibroblast culture supernatants described in Example 2 were treated to the 96-well plate coated with type 1 collagen antibodies, and reacted at room temperature for 2 hours. […] Reaction was stopped using 2 N hydrochloric acid, and absorbance was measured at 450 nm.

[2] = test system: Human normal fibroblasts (Human Dermal Fibroblast neonatal); assay: Cytotoxicity test by MTT assay; format: cell-based; settings: dilutions of 200 uM, 20 uM and 2 uM, each 100 ul added to 100 ul medium, incubation 48 hours, FIG. 1
Method: In order to examine cytotoxicity of the biotin-conjugated hexapeptide-2 peptide synthesized in Example 1, the following experiment was performed. Cytotoxicity was examined by MTT assay, and a control group with no sample added was considered as 100% to calculate relative cytotoxicity. The detailed experimental method is as follows. Human normal fibroblasts (Human Dermal Fibroblast neonatal) were seeded in a 96-well plate for cell culture at a density of 3,000 cells per well, and cultured in 10% FBS (Fetal bovine serum)-containing DMEM (Dulbecco's Modified Eagle Media, Gibco BRL) in a 37° C., 5% CO2 incubator for 24 hours. Each test material was dissolved in water at a concentration of 10 mM to prepare concentrates, and the concentrates were diluted with 0.5% FBS-containing DMEM at a concentration of 200 uM, 20 uM, and 2 uM. Then, each 100 ul of the diluted solutions was added to each well previously containing 100 ul of the medium, followed by incubation for 48 hours. After completing the cultivation, the supernatants were used to determine the amount of type 1 collagen produced (Example 3), and the cells were used to determine cytotoxicity. […] Thereafter, the supernatant was carefully removed, and MTT formazan precipitates in the cells were dissolved in 100 ul of DMSO to determine absorbance at OD570 using an ELISA reader.

SMILES	type 1 collagen biosynthesis (ELISA, relative to control group with no sample added = 100%) [1]	cytotoxicity (MTT assay, relative to control group with no sample added = 100%) [2]
CC(NC(=O)C(Cc1c[nH]c2ccccc12)NC(=O)C(Cc1c[nH]cn1)NC(=O)CCCC[C@@H]1SC[C@@H]2NC(=O)N[C@@H]21)C(=O)NC(Cc1c[nH]c2ccccc12)C(=O)NC(Cc1ccccc1)C(=O)NC(CCCCN)C(N)=O (stereo partly drawn) [biotin-conjugated hexapeptide-2] (Biotin-[ξH][ξW][ξA][ξW][ξF][ξK]-NH2)	significant increase	
O=C(O)CCCC[C@@H]1SC[C@@H]2NC(=O)N[C@@H]21 [biotin]	no increase	
C[C@H](NC(=O)[C@@H](Cc1c[nH]c2ccccc12)NC(=O)[C@@H](N)Cc1c[nH]cn1)C(=O)N[C@@H](Cc1c[nH]c2ccccc12)C(=O)N[C@H](Cc1ccccc1)C(=O)N[C@@H](CCCCN)C(N)=O [hexapeptide-2, His-D-Trp-Ala-Trp-D-Phe-Lys-NH2] (H-H[dW]AW[dF]K-NH2)		no cytotoxicity
